Reference: patent US6479651B1, “Modified oligonucleotides, their preparation and their use” (Aventis Pharma Deutschland GmbH, priority 1994, dated 2002)

Compound	melting point [°C]
O=C(Nc1ncnc2c1c(Br)cn2[C@H]1C[C@H](O)[C@@H](CO)O1)c1ccccc1 [Compound 5, 4-Benzoylamino-5-bromo-7-(2-deoxy-β-D-erythropentofuranosyl)-7H-pyrrolo[2,3-d]pyrimidine]	198
Cc1cn([C@H]2C[C@H](O)[C@@H](CO)O2)c2ncnc(NC(=O)c3ccccc3)c12 [Compound 6, 4-Benzoylamino-7-(2-deoxy-β-D-erythropentofuranosyl)-5-methyl-7H-pyrrolo[2,3-d]pyrimidine]	196
Nc1ncnc2c1c(I)cn2[C@H]1C[C@H](O)[C@@H](CO)O1 [Compound 14, 4-Amino-7-(2-deoxy-β-D-erythropentofuranosyl)-5-iodo-7H-pyrrolo [2,3-d]pyrimidine]	194

The next lines start with the values.

melting point [°C]	Compound
190	O=C(Nc1ncnc2c1c(Cl)cn2[C@H]1C[C@H](O)[C@@H](CO)O1)c1ccccc1 [Compound 4, 4-Benzoylamino-5-chloro-7-(2-deoxy-β-D-erythropentofuranosyl)-7H-pyrrolo[2,3-d]pyrimidine]
127 to 128	COc1nc(NC=O)nc2c1c(Cl)c(Cl)n2[C@H]1C[C@H](OC(=O)C(C)C)[C@@H](COC(=O)C(C)C)O1 [Compound 49, 7-[2-Deoxy-3,5-di-O-(2-methylpropionyl)-β-D-erythropentofuranosyl]-5,6-dichloro-2-[(formyl)amino]-4-methoxy-7H-pyrrolo[2,3-d]pyrimidine]
218 to 220	Nc1nc2c(c(I)cn2[C@H]2C[C@H](O)[C@@H](CO)O2)c(=O)[nH]1 [Compound 58, 2-Amino-7-(2-deoxy-β-D-erythropentofuranosyl)-5-iodo-3,7-dihydro-4H-pyrrolo[2,3-d]pyrimidin-4-one]
